{
  "source": "patent US11549947B2",
  "about": "“Multiplexed detection with isotope-coded reporters” (Massachusetts Institute of Technology, priority 2011, dated 2023)",
  "molecules": {"B1": {"name": "serum CEA: blood biomarker carcinoembryonic antigen secreted by LS174T cells (protein, UniProt P06731 35-685, looked up)", "Cell adhesion molecule CEACAM5": "KLTIESTPFNVAEGKEVLLLVHNLPQHLFGYSWYKGERVDGNRQIIGYVIGTQQATPGPAYSGREIIYPNASLLIQNIIQNDTGFYTLHVIKSDLVNEEATGQFRVYPELPKPSISSNNSKPVEDKDAVAFTCEPETQDATYLWWVNNQSLPVSPRLQLSNGNRTLTLFNVTRNDTASYKCETQNPVSARRSDSVILNVLYGPDAPTISPLNTSYRSGENLNLSCHAASNPPAQYSWFVNGTFQQSTQELFIPNITVNNSGSYTCQAHNSDTGLNRTTVTTITVYAEPPKPFITSNNSNPVEDEDAVALTCEPEIQNTTYLWWVNNQSLPVSPRLQLSNDNRTLTLLSVTRNDVGPYECGIQNELSVDHSDPVILNVLYGPDDPTISPSYTYYRPGVNLSLSCHAASNPPAQYSWLIDGNIQQHTQELFISNITEKNSGLYTCQANNSASGHSRTTVKTITVSAELPKPSISSNNSKPVEDKDAVAFTCEPEAQNTTYLWWVNGQSLPVSPRLQLSNGNRTLTLFNVTRNDARAYVCGIQNSVSANRSDPVTLDVLYGPDTPIISPPDSSYLSGANLNLSCHSASNPSPQYSWRINGIPQQHTQVLFIAKITPNNNGTYACFVSNLATGRNNSIVKSITVSASGTSPGLSA"}},
  "key": {"liver collagen": {"system": "liver collagen", "conditions": "mouse, in vivo", "description": "In vivo imaging. […] FVB/NJ mice (Jackson Labs) were fed with 0.1% w/w DDC (Sigma) rodent chow for three weeks (Research Diets). Fibrotic and age control animals were i.v. infused with VivoTag-680 labeled reagents and visualized by IVIS imaging (Xenogen).\nFor in situ zymography, fibrotic sections were covered with 90 μl solution of 0.5% w/v low melt agarose (Sigma) in MMP activation buffer (50 mM Tris, 150 NaCl, 5 mM CaCl2, 0.025% Brij 35, pH 7.5) with 10 μl of DQ-gelation (1 mg/ml, Invitrogen) and Hoechst dye at 37° C. Slides were solidified at 4° C. and then incubated at room temperature overnight to promote gelation proteolysis by tissue proteases. To quantify hepatic collagen, tissue from the right and left lobes (250-300 mg) were hydrolyzed in 5 ml of 6 N HCl at 110° C. for 16 hours followed by hydroxyproline quantification as previously described.^43 To quantify CEA, blood was collected from tumor animals into Capiject microtubes (Terumo) to isolate serum before ELISA analysis (Calbiotech). For immunofluorescence analysis, equimolar NW cocktails (5 μM/peptide) were administered in Fibrotic FVB/NJ or tumor bearing Nude mice. After perfusion, livers or tumors were fixed in 4% PFA, froze for sectioning, and stained for F4/80 (AbD Serotec), MMP-9 (R&D Biosystems), CD31 (Santa Cruz Biotechnologies) and/or FITC (Genetex) before analyzed by fluorescence microscopy (Nikon Eclipse Ti). […]"}, "[1]": {"design": "species or system FVB/NJ mice", "conditions": "mouse, in vivo, iv", "excerpt": "Using this assay, increases in sample fluorescence were observed upon proteolytic cleavage of the tethered fluorescent peptides resulting from abrogation of homoquenching between adjacent fluorophores. Initial reaction velocities were extracted for each protease-substrate combination and compiled for comparative analysis (FIG. 10a,b). FIG. 10 illustrates selecting protease-sensitive substrates for NW-chaperoned urinary trafficking. Kinetics of peptide-NW cleavage monitored by fluorimetry are shown in (a). Specific protease-substrate combinations led to rapid activation. […] IVIS in vivo imaging of DDC treated and control animals following intravenous injection of VivoTag-680 labeled Glu-fib peptides, (d) peptide-free NWs, or (e) peptide-conjugated NWs."}, "[2]": {"system": "hepatic fibrosis and resolution in DDC-treated mice", "assay": "iCORE LC MS/MS analysis of urinary reporters after i.v. NW cocktail, DDC liver fibrosis model", "format": "in vivo, FVB/NJ mice", "conditions": "for individual iCORE peak intensity (DDC over control) relative to pretreatment: DDC-treated mice, NWs administered at 0, 3, 7 and 11 weeks, urine, n=10", "protocol": "(§1) Mice were intravenously infused with 200 μl of PBS containing equimolar NW cocktails (5 μM per peptide) with EDTA-free protease inhibitor tablets (Roche) to isolate MMP activity. Mice were placed over 96-well plates surrounded by cylindrical sleeves for urine collection. To prevent further reporter degradation, voided samples were spiked with EDTA+ complete protease inhibitors (Roche) immediately after collection. To quantify urinary fluorescence, 2 μL of each sample was incubated with magnetic beads (Dynal) coated with α-FITC antibodies (Genetex) in 50 μl binding buffer ([…], 0.01% CHAPS) for 1 hr at 37° C., washed twice with 100 mM NH4OAc, and eluted twice with 15 μl of 5% acetic acid. Samples were neutralized with 2 M Tris and quantified by microplate fluorimetry. For iCORE analysis, samples were irradiated with UV for 30 min. before TCA precipitation (20% final volume) to remove proteins. Soluble fractions were applied to C18 reverse phase columns (Nest Group) and eluted via step gradients of 20% ACN increments in 0.1% formic acid. 60% ACN fractions containing Glu-fib peptides were collected and dried by vacuum centrifuge.\nPeptide samples were reconstituted in 5% ACN, 0.1% formic acid and analyzed at MIT or the Taplin MS facility (Harvard Medical School). At MIT, peptides were captured and eluted from a C18 nanoflow HPLC column (75 μm internal diameter Magic C18 AQ, Michrom BioResources, Inc.) at a flow rate of 300 nL/min using water-acetonitrile solvent system with 0.1% formic acid. ESI mass spectrometry was carried out on a QSTAR Elite QTOF mass spectrometer (AB Sciex). At Harvard, samples are reconstituted in 2.5% ACN, 0.1% formic acid. Samples are injected using a Famos autosampler (LC Packings) into an Agilent 1100 HPLC prior to mass analysis on a LTQ-Orbitrap (Thermo Electron). To account for discrepancies in urine volumes and concentration, peak intensities of individual reporters were scaled relative to its respective total iCORE ion current before normalization against control samples to account for technical and age-related variations.\nPearson's correlation coefficients between different protease profiles were calculated with MatLAB. ANOVA analyses were calculated with GraphPad 5.0 (Prism). For ROC analysis, risk score functions were first estimated by logistic regression on individual biomarkers followed by ROC curve analyses of single or biomarker combinations (SigmaPlot).\nThus, to monitor the transitions between fibrosing and resolving disease, NWs were administered at 0, 3, 7, and 11 weeks into DDC-treated and age-matched control animals followed by iCORE MS/MS analysis.\nThe diagnostic performance of these biomarkers was determined by performing receiver operating characteristic (ROC) analyses for individual as well as biomarker combinations. ROC curves characterize the sensitivity and specificity of a biomarker as a function of the discrimination threshold by returning the area under the curve (AUC) as a performance metric with a baseline AUC of 0.5 representing a random biomarker classifier (dashed line, FIG. 11g,h)."}, "LS174T xenograft tumors [3]": {"system": "LS174T xenograft tumors", "assay": "iCORE MS/MS analysis of urinary reporters after i.v. NW library, colorectal tumor xenograft model", "format": "in vivo, athymic nude mice", "conditions": "LS 174T tumor vs control, day 10; n=16 (8 ctrl, 8 tumor)", "protocol": "as §1, with “60% ACN fractions containing Glu-fib peptides were collected and dried by vacuum centrifuge.” left out\nPeptide samples were reconstituted in 5% ACN, 0.1% formic acid and analyzed at MIT or the Taplin MS facility (Harvard Medical School). […]\nPearson's correlation coefficients between different protease profiles were calculated with MatLAB. ANOVA analyses were calculated with GraphPad 5.0 (Prism). […]"}, "LS174T xenograft tumors [4]": {"system": "LS174T xenograft tumors", "assay": "Serum CEA by ELISA in tumor animals", "format": "in vivo, athymic nude mice", "protocol": "To quantify hepatic collagen, tissue from the right and left lobes (250-300 mg) were hydrolyzed in 5 ml of 6 N HCl at 110° C. for 16 hours followed by hydroxyproline quantification as previously described.^43 To quantify CEA, blood was collected from tumor animals into Capiject microtubes (Terumo) to isolate serum before ELISA analysis (Calbiotech).\nHere, it was investigated whether panels of synthetic urinary biomarkers could be readily adapted to allow earlier and more accurate detection of cancer compared with single clinical blood biomarkers, e.g., because nanoparticles can be passively targeted to tumors to sample proteases through fenestrated angiogenic tumor vessels.^16. In order to explore this concept, athymic nude mice were used bearing LS174T xenograft tumors, a human colorectal cancer (CRC) cell line^38 that secretes the blood biomarker carcinoembryonic antigen (CEA) as a model system (FIG. 22). […] Following implantation, tumor engraftment was monitored by sampling serum every 3 days and analyzing for CEA by ELISA (FIG. 23b,c). […] Tumors permitted to grow further were readily detected by CEA analysis (day 13 and 16), representing a limit of detection of ˜330 mm3 (d ˜8.6 mm) (**P<0.01, Two way ANOVA, n=5). […] To determine the full diagnostic potential of multiplexed analysis, individual biomarkers were quantified by iCORE MS/MS."}},
  "data": [
    {"molecule": "3,5-diethoxycarbonyl-1,4-dihydrocollidine [DDC]", "values": [
      {"measurement": "drop in liver collagen", "setting": "liver collagen", "result": "~30", "unit": "%"}
    ]},
    {"molecule": "EGVNDNEEGFFSAR [Glu-fib, prototypic urinary marker peptide]", "values": [
      {"measurement": "liver homing", "setting": "[1]", "result": "undetectable"},
      {"measurement": "urinary filtration / urinary fluorescence", "setting": "[1]", "result": "efficiently filtered into urine"}
    ]},
    {"molecule": "eGVndnee^+3G^+6FfsAr-X-K(FAM)GGf(Pip)KSGGGC-NW [Biomarker G10]", "values": [
      {"measurement": "individual iCORE peak intensity (DDC over control) relative to pretreatment", "setting": "[2]", "result": "did not deviate from initial pretreatment activities"}
    ]},
    {"molecule": "eG^+5VndneeGFfs^+4Ar-X-K(FAM)GGPVPLSLVMC-NW [Biomarker G5]", "values": [
      {"measurement": "individual iCORE peak intensity (DDC over control) relative to pretreatment", "setting": "[2]", "result": "significantly decreasing at week 3"},
      {"measurement": "ROC area under the curve (AUC), fibrosing biomarkers", "setting": "[2]; fibrosing window of 0-3 weeks, baseline AUC 0.5", "result": 0.96}
    ]},
    {"molecule": "eG^+6Vndnee^+2GFfs^+1Ar-X-K(FAM)GGPWGIWGQGC-NW [Biomarker G4]", "values": [
      {"measurement": "individual iCORE peak intensity (DDC over control) relative to pretreatment", "setting": "[2]", "result": "strongly increased relative to pretreatment baselines"}
    ]},
    {"molecule": "e^+1GVndnee^+2G^+6FfsAr-X-K(FAM)GGfPRSGGGC-NW [Biomarker G9]", "values": [
      {"measurement": "individual iCORE peak intensity (DDC over control) relative to pretreatment", "setting": "[2]", "result": "did not deviate from initial pretreatment activities"}
    ]},
    {"molecule": "e^+1G^+6Vndnee^+2GFfsAr-X-K(FAM)GGPVGLIGC-NW [Biomarker G3]", "values": [
      {"measurement": "individual iCORE peak intensity (DDC over control) relative to pretreatment", "setting": "[2]", "result": "strongly increased relative to pretreatment baselines"}
    ]},
    {"molecule": "e^+2GVndneeG^+6Ffs^+1Ar-X-K(FAM)GGf(Pip)RSGGGC-NW [Biomarker G8]", "values": [
      {"measurement": "individual iCORE peak intensity (DDC over control) relative to pretreatment", "setting": "[2]", "result": "did not deviate from initial pretreatment activities"}
    ]},
    {"molecule": "e^+2G^+6Vndnee^+1GFfsAr-X-K(FAM)GGLVPRGSGC-NW [Biomarker G2]", "values": [
      {"measurement": "individual iCORE peak intensity (DDC over control) relative to pretreatment", "setting": "[2]", "result": "did not deviate from initial pretreatment activities"}
    ]},
    {"molecule": "e^+3GVndneeG^+6FfsAr-X-K(FAM)GGPLGVRGKC-NW [Biomarker G7]", "values": [
      {"measurement": "individual iCORE peak intensity (DDC over control) relative to pretreatment", "setting": "[2]", "result": "elevating sharply at week 3 followed by a rapid reversal at week 7"}
    ]},
    {"molecule": "e^+3G^+1Vndnee^+1GFfs^+4Ar-X-K(FAM)GGPLGLRSWC-NW [Biomarker G6]", "values": [
      {"measurement": "individual iCORE peak intensity (DDC over control) relative to pretreatment", "setting": "[2]", "result": "significantly decreasing at week 3"}
    ]},
    {"molecule": "e^+3G^+6VndneeGFfsAr-X-K(FAM)GGPQGIWGQC-NW [Biomarker G1]", "values": [
      {"measurement": "ROC area under the curve (AUC), tumor biomarkers", "setting": "LS174T xenograft tumors [3]", "result": 0.78},
      {"measurement": "individual iCORE peak intensity (DDC over control) relative to pretreatment", "setting": "[2]", "result": "did not deviate from initial pretreatment activities"},
      {"measurement": "ROC area under the curve (AUC), resolving biomarkers", "setting": "[2]; resolving time frame of 7-11 weeks, baseline AUC 0.5", "result": 0.73}
    ]},
    {"molecule": "B1", "values": [
      {"measurement": "ROC area under the curve (AUC), serum CEA", "setting": "LS174T xenograft tumors [4]; day 10", "result": 0.61},
      {"measurement": "limit of detection (tumor burden) by CEA analysis", "setting": "LS174T xenograft tumors [4]; day 13 and 16", "result": "~330", "unit": "mm3"}
    ]}
  ]
}
